Experimental data taken from patent publication US20250195490A1, “ALPHA-METHYLENE AND AMINOMETHYL LACTONES AND LACTAMS FOR TREATMENT OF CLOSTRIDIOIDES DIFFICILE INFECTION (CDI)” (Purdue Research Foundation, priority 2022, published 2025).
Values after ≈ are worked out from the molar mass of the structure shown.

What was measured:
[1] = tested on: L. reuteri; experiment: MIC against human normal gut microbiota: L. reuteri; format: cell-based, Lactobacillus reuteri; settings: L. reuteri HM 120
Excerpt: (§1) The activity of the selected lactones against the human gut microbiota was also examined. Microbiota interfere with C. difficile's ability to colonize the gastrointestinal tract and subsequently cause infection. Many antibiotics inhibit/kill the endogenous microflora, which permits enhanced colonization by C. difficile and infection. Three different bacterial species that are present in the gut microflora were used in this experiment; Bifidobacterium (anaerobic Gram-positive bacteria), Bacteroides (anaerobic Gram-negative bacteria) and Lactobacillus (microaerophilic Gram-positive bacteria). Ideal compounds/drugs are those with selective antibacterial activity against C. difficile so as to protect the indigenous microflora present in the GI tract from being damaged/killed (which will exacerbate infections caused by C. difficile).
(§2) Bifidobacterium and Bacteroides were first grown for 48 hours at 37° C., anaerobically, using brain heart infusion supplemented (BHIS) agar (brain heart infusion agar supplemented with hemin, vitamin K and L-cysteine). Lactobacillus was cultivated on MRS agar and incubated in the presence of 5% CO2 for 48 hours at 37° C. Each bacterium was suspended in phosphate-buffered saline (PBS) to achieve 0.5 McFarland standard and subsequently diluted in brain heart infusion supplemented broth (for Bifidobacterium and Bacteroides) or in MRS broth (for Lactobacillus) to achieve a bacterial inoculum of approximately 5×10^5 CFU/mL. Bacteria were then seeded in 96-well plates containing serial dilutions of the compounds and incubated for 48 hours. MICs reported in Table 4 are the minimum concentration of compound/control drug that inhibited the visual growth of bacteria.

[2] = tested on: C. albicans; experiment: Broth microdilution against Candida albicans; format: cell-based; settings: gradient 128 to 1 μg/mL, 24 hours
Protocol: (§3) Method: The minimum inhibitory concentration (MIC) of the compounds and control drugs, linezolid (antibiotic), vancomycin (antibiotic), 5-fluorocytosine (5-FC, antifungal drug), and fluconazole (antifungal drug) was determined using the broth microdilution method according to the guidelines outlined by the Clinical and Laboratory Standards Institute (CLSI) against clinically relevant bacterial (methicillin-resistant Staphylococcus aureus (MRSA), vancomycin-resistant Enterococcus faecalis (VRE), vancomycin-resistant Enterococcus faecium (VRE), Clostridioides difficile and Escherichia coli) and fungal (Candida albicans) strains. A solution equivalent to 0.5 McFarland standard was prepared from each strain and diluted in cation-adjusted Mueller-Hinton broth (for S. aureus and E. coli), tryptone soy broth (for E. faecalis), or brain heart infusion broth (for E. faecium) to achieve a bacterial inoculum of about 5×10^5 CFU/mL. C. difficile strains were cultured in brain heart infusion broth supplemented with hemin and vitamin K. C. albicans was diluted in RPMI medium supplemented with 3-(N-morpholino) propanesulfonic acid to achieve a fungal concentration of about 1.5×10^3 CFU/mL. Compounds and control drugs were added in the first row of the 96-well plates and diluted with media containing bacteria (to achieve a concentration gradient ranging from 128 to 1 μg/mL). For MRSA, VRE, and E. coli strains, plates were then incubated aerobically at 37° C. for at least 18 hours. C. albicans was incubated aerobically at 37° C. for 24 hours. Plates containing C. difficile were incubated anaerobically at […] for 48 hours.

[3] = tested on: clinically important Clostridioides difficile strains; experiment: MIC against clinically important Clostridioides difficile strains; format: cell-based
Protocol: (§4) The antibacterial activity of compounds 48, 50, 51, 61 and 85 against a panel of Clostridioides difficile strains was evaluated. A bacterial solution equivalent to 0.5 McFarland standard was prepared and diluted in brain heart infusion broth supplemented with hemin and vitamin K. Compounds and control drugs were added in the first row of 96-well plates and serially diluted with media containing bacteria (to achieve a concentration gradient ranging from 128 to 1 μg/mL). Plates were then incubated anaerobically at […] for 48 hours.

[4] = tested on: L. casei; experiment: MIC against human normal gut microbiota: L. casei; format: cell-based, Lactobacillus casei; settings: L. casei HM 334
Excerpt: as §1, §2

[5] = tested on: Ba. fragilis; experiment: MIC against human normal gut microbiota: Bacteroides fragilis; format: cell-based
Excerpt: as §1, §2

[6] = tested on: Bi. longum; experiment: MIC against human normal gut microbiota: Bifidobacterium longum; format: cell-based; settings: Bi. longum HM 848
Excerpt: as §1, §2

[7] = tested on: E. faecium; experiment: Broth microdilution against vancomycin-resistant E. faecium; format: cell-based, Enterococcus faecium; settings: gradient 128 to 1 μg/mL
Protocol: as §3

[8] = tested on: MRSA (USA300); experiment: microbe, parasite or virus in culture; format: cell-based, Staphylococcus aureus; settings: aerobic, 37° C., at least 18 hours
Protocol: as §3

[9] = tested on: Ba. dorsei; experiment: MIC against human normal gut microbiota: Bacteroides dorsei; format: cell-based
Excerpt: as §1, §2

[10] = tested on: hypervirulent Clostridioides difficile strains; experiment: MIC against hypervirulent Clostridioides difficile strains; format: cell-based
Protocol: as §4

[11] = tested on: L. gasseri; experiment: MIC against human normal gut microbiota: L. gasseri; format: cell-based, Lactobacillus gasseri; settings: L. gasseri HM 407
Excerpt: as §1, §2

[12] = tested on: E. coli (TolC mutant); experiment: MIC by broth microdilution against E. coli (TolC mutant); format: cell-based, Escherichia coli; settings: for MIC E. coli (TolC mutant): aerobic, 37° C., at least 18 hours
Protocol: as §3

[13] = tested on: E. faecalis (VRE); experiment: microbe, parasite or virus in culture; format: cell-based, Enterococcus faecalis; settings: aerobic, 37° C., at least 18 hours
Protocol: as §3

[14] = tested on: Clostridioides difficile; experiment: MIC by broth microdilution against Clostridioides difficile (Table 1); format: cell-based; settings: anaerobic, 48 hours; strain BAA-1870
Protocol: as §3

[15] = tested on: Bi. breve; experiment: MIC against human normal gut microbiota: Bifidobacterium breve; format: cell-based; settings: Bi. breve HM 856
Excerpt: as §1, §2

[16] = tested on: L. crispatus; experiment: MIC against human normal gut microbiota: L. crispatus; format: cell-based, Lactobacillus crispatus
Excerpt: as §1, §2

SMILES	MIC [1] [µg/mL]	activity against C. albicans [2]	MIC ([3]; CD strain 16) [µg/mL]	MIC ([3]; CD strain 18) [µg/mL]	MIC ([3]; CD strain 19) [µg/mL]	MIC ([3]; CD strain 1801) [µg/mL]	MIC ([3]; CD strain 43255) [µg/mL]	MIC ([3]; CD strain P6) [µg/mL]	MIC ([3]; CD strain P7) [µg/mL]	MIC ([3]; CD strain P13) [µg/mL]	MIC ([3]; CD strain P19) [µg/mL]	MIC [4] [µg/mL]	MIC ([5]; Ba. fragilis HM 709) [µg/mL]	MIC ([5]; Ba. fragilis HM 710) [µg/mL]	MIC ([5]; Ba. fragilis HM 711) [µg/mL]	MIC ([5]; Ba. fragilis HM 714) [µg/mL]	MIC [6] [µg/mL]	inhibition of the tested strains of E. faecium [7]	MIC MRSA (USA300) [8] [µg/mL]	MIC ([9]; Ba. dorsei HM 29) [µg/mL]	other results
CC(C)(C)[Si](C)(C)OCCC1OC(=O)C(CN2CCCCC2)C1c1cccc(Br)c1 (racemic) [Compound 48]	>128	inactive	4 (≈ 8.06 µM)	2 (≈ 4.03 µM)	4 (≈ 8.06 µM)	8 (≈ 16.1 µM)	8 (≈ 16.1 µM)	8 (≈ 16.1 µM)	2 (≈ 4.03 µM)	2 (≈ 4.03 µM)	2 (≈ 4.03 µM)	>128	>128	>128	>128	>128	>128	did not inhibit	>128	>128	MIC ([9]; Ba. dorsei HM 717): >128 µg/mL; MIC ([10]; CD strain 81): 16 µg/mL (≈ 32.2 µM); MIC ([10]; CD strain 82): 8 µg/mL (≈ 16.1 µM); MIC ([10]; CD strain 83): 8 µg/mL (≈ 16.1 µM); MIC ([10]; CD strain 84): 8 µg/mL (≈ 16.1 µM); MIC ([10]; CD strain 85): 8 µg/mL (≈ 16.1 µM); MIC ([10]; CD strain 86): 8 µg/mL (≈ 16.1 µM); MIC ([10]; CD strain 87): 4 µg/mL (≈ 8.06 µM); MIC ([10]; CD strain 90): 4 µg/mL (≈ 8.06 µM); MIC ([10]; CD strain 49279): 8 µg/mL (≈ 16.1 µM); MIC ([10]; CD strain 49287): 4 µg/mL (≈ 8.06 µM); MIC ([10]; CD strain 49291): 4 µg/mL (≈ 8.06 µM); MIC [11]: >128 µg/mL; MIC E. coli (TolC mutant) [12]: >128 µg/mL; MIC E. faecalis (VRE) [13]: >128 µg/mL; MIC Clostridioides difficile [14]: 8 µg/mL (≈ 16.1 µM); MIC [15]: >128 µg/mL; MIC ([16]; L. crispatus HM 375): >128 µg/mL; MIC ([16]; L. crispatus HM 421): >128 µg/mL
C=C1C(=O)OC(CCCCCCCC)C1C=Cc1ccccc1 (racemic) [Compound 51]	>128	inactive	16 (≈ 51.2 µM)	2 (≈ 6.4 µM)	16 (≈ 51.2 µM)	32 (≈ 102 µM)	16 (≈ 51.2 µM)	8 (≈ 25.6 µM)	16 (≈ 51.2 µM)	2 (≈ 6.4 µM)	16 (≈ 51.2 µM)	>128	>128	>128	>128	>128	>128	did not inhibit	>128	>128	MIC ([9]; Ba. dorsei HM 717): >128 µg/mL; MIC ([10]; CD strain 81): 16 µg/mL (≈ 51.2 µM); MIC ([10]; CD strain 82): 16 µg/mL (≈ 51.2 µM); MIC ([10]; CD strain 83): 16 µg/mL (≈ 51.2 µM); MIC ([10]; CD strain 84): 64 µg/mL (≈ 205 µM); MIC ([10]; CD strain 85): 64 µg/mL (≈ 205 µM); MIC ([10]; CD strain 86): 32 µg/mL (≈ 102 µM); MIC ([10]; CD strain 87): 32 µg/mL (≈ 102 µM); MIC ([10]; CD strain 90): 4 µg/mL (≈ 12.8 µM); MIC ([10]; CD strain 49279): 16 µg/mL (≈ 51.2 µM); MIC ([10]; CD strain 49287): 8 µg/mL (≈ 25.6 µM); MIC ([10]; CD strain 49291): 8 µg/mL (≈ 25.6 µM); MIC [11]: >128 µg/mL; MIC E. coli (TolC mutant) [12]: >128 µg/mL; MIC E. faecalis (VRE) [13]: >128 µg/mL; MIC Clostridioides difficile [14]: 8 µg/mL (≈ 25.6 µM); MIC [15]: >128 µg/mL; MIC ([16]; L. crispatus HM 375): >128 µg/mL; MIC ([16]; L. crispatus HM 421): >128 µg/mL
C=C1C(=O)O[C@H](c2c(OC)cc(OC)cc2OC)[C@@H]1c1ccc(C(F)(F)F)cc1 (racemic) [Compound 61]	>128	inactive	16 (≈ 39.2 µM)	2 (≈ 4.9 µM)	8 (≈ 19.6 µM)	16 (≈ 39.2 µM)	4 (≈ 9.79 µM)	8 (≈ 19.6 µM)	8 (≈ 19.6 µM)	8 (≈ 19.6 µM)	8 (≈ 19.6 µM)	>128	>128	>128	>128	>128	>128	did not inhibit	>128	>128	MIC ([9]; Ba. dorsei HM 717): >128 µg/mL; MIC ([10]; CD strain 81): 16 µg/mL (≈ 39.2 µM); MIC ([10]; CD strain 82): 16 µg/mL (≈ 39.2 µM); MIC ([10]; CD strain 83): 64 µg/mL (≈ 157 µM); MIC ([10]; CD strain 84): 64 µg/mL (≈ 157 µM); MIC ([10]; CD strain 85): 64 µg/mL (≈ 157 µM); MIC ([10]; CD strain 86): 32 µg/mL (≈ 78.4 µM); MIC ([10]; CD strain 87): 8 µg/mL (≈ 19.6 µM); MIC ([10]; CD strain 90): 16 µg/mL (≈ 39.2 µM); MIC ([10]; CD strain 49279): 64 µg/mL (≈ 157 µM); MIC ([10]; CD strain 49287): 8 µg/mL (≈ 19.6 µM); MIC ([10]; CD strain 49291): 8 µg/mL (≈ 19.6 µM); MIC [11]: >128 µg/mL; MIC E. coli (TolC mutant) [12]: >128 µg/mL; MIC E. faecalis (VRE) [13]: >128 µg/mL; MIC Clostridioides difficile [14]: 8 µg/mL (≈ 19.6 µM); MIC [15]: >128 µg/mL; MIC ([16]; L. crispatus HM 375): >128 µg/mL; MIC ([16]; L. crispatus HM 421): >128 µg/mL
CC(=O)NC[C@H]1CN(c2ccc(N3CCOCC3)c(F)c2)C(=O)O1 [Linezolid, reference compound]	–	–	–	–	–	–	–	–	–	–	–	–	–	–	–	–	–	–	–	–	MIC ([8]; Staphylococcus aureus, read-out: MIC MRSA (USA300)): 1 µg/mL (≈ 2.96 µM); MIC ([12]; Escherichia coli, 18 h, read-out: MIC E. coli (TolC mutant)): 16 µg/mL (≈ 47.4 µM); MIC ([13]; Enterococcus faecalis, VRE): 1 µg/mL (≈ 2.96 µM)
